Patent US20240246932A1 (Merck Sharp & Dohme LLC, priority 2021, published 2024)

Each compound was assayed against human NaV 1.8 channels stably expressed in HEK 293 cells (Homo sapiens (Human), UniProt Q9Y5Y9) (assay: Nav1.8 Qube automated patch-clamp assay). Conditions: human NaV1.8 in HEK 293 cells, whole-cell voltage clamp, room temperature; read-out: IC50 values (nM) for Examples in the Nav1.8 Qube Assay.
Format: cell-based
Description: Compounds were tested on human NaV 1.8 and NaV1.5 channels stably expressed in human embryo kidney (HEK) 293 cells. Sodium current measurements on Qube® were conducted as follows: automated 384-well patch-clamp assays on the Qube® platform (Sophion Biosciences) were used to measure the inhibition of sodium flow through human NaV1.8 and NaV1.5 channels. Whole-cell voltage-clamp recordings were performed in QChips® (Sophion Biosciences) at room temperature. NaV1.8 current measurements on Qube® were obtained as follows: NaV1.8 currents were elicited with a 10 second 1 Hertz (Hz) pulse train from a holding potential of −90 millivolts (mV), delivered to the cells once per minute in the control condition (DMSO only) and after compound addition. The 1 hertz pulse train stimulation consisted of ten test pulses to 10 millivolt (mV) for 20 milliseconds (ms), each of which was followed by a 980 millisecond repolarization to −67 millivolts. At the end of the 10 second pulse train stimulation, a 5 second hyperpolarization step to −100 millivolt (mV) was used to recover NaV1.8 from fast inactivation. The peak currents elicited by the 1st and 10th test pulses were used to determine IC50 values for resting inhibition and inactivated state inhibition. NaV1.5 current measurements on Qube® were obtained as follows: NaV1.5 currents were elicited with a 20 second 3 Hertz pulse train in the control condition (DMSO only) and after compound addition. The pulse train consisted of sixty 20 millisecond test pulses to 0 millivolt from a holding potential of −80 millivolt (mV). The average peak currents elicited by the last 3 test pulses were used to determine IC50 values for NaV1.5 inhibition.
The following buffers were used for the Qube® recordings: External buffer for NaV1.8 Qube® recording: 150 NaCl, 2 CaCl2, 5 KCl, 1 MgCl2, 10 HEPES, 12 Dextrose; External buffer for Qube® NaV1.5 recording: 120 N-Methyl-D-Glucamine, 40 NaCl, 1 KCl, 2.7 CaCl2), 5 HEPES, 0.5 MgCl2; and Internal buffer for Qube® recording: 120 CsF, 30 CsCl, 10 EGTA, 5 HEPES, 5 NaF, 2 MgCl2.
For all Qube® experiments offline analysis was used to determine percent inhibition as a function of drug concentration. IC50 values were determined by fitting to the Hill equation.

human NaV 1.8 channels stably expressed in HEK 293 cells, sequence (Q9Y5Y9 whole entry): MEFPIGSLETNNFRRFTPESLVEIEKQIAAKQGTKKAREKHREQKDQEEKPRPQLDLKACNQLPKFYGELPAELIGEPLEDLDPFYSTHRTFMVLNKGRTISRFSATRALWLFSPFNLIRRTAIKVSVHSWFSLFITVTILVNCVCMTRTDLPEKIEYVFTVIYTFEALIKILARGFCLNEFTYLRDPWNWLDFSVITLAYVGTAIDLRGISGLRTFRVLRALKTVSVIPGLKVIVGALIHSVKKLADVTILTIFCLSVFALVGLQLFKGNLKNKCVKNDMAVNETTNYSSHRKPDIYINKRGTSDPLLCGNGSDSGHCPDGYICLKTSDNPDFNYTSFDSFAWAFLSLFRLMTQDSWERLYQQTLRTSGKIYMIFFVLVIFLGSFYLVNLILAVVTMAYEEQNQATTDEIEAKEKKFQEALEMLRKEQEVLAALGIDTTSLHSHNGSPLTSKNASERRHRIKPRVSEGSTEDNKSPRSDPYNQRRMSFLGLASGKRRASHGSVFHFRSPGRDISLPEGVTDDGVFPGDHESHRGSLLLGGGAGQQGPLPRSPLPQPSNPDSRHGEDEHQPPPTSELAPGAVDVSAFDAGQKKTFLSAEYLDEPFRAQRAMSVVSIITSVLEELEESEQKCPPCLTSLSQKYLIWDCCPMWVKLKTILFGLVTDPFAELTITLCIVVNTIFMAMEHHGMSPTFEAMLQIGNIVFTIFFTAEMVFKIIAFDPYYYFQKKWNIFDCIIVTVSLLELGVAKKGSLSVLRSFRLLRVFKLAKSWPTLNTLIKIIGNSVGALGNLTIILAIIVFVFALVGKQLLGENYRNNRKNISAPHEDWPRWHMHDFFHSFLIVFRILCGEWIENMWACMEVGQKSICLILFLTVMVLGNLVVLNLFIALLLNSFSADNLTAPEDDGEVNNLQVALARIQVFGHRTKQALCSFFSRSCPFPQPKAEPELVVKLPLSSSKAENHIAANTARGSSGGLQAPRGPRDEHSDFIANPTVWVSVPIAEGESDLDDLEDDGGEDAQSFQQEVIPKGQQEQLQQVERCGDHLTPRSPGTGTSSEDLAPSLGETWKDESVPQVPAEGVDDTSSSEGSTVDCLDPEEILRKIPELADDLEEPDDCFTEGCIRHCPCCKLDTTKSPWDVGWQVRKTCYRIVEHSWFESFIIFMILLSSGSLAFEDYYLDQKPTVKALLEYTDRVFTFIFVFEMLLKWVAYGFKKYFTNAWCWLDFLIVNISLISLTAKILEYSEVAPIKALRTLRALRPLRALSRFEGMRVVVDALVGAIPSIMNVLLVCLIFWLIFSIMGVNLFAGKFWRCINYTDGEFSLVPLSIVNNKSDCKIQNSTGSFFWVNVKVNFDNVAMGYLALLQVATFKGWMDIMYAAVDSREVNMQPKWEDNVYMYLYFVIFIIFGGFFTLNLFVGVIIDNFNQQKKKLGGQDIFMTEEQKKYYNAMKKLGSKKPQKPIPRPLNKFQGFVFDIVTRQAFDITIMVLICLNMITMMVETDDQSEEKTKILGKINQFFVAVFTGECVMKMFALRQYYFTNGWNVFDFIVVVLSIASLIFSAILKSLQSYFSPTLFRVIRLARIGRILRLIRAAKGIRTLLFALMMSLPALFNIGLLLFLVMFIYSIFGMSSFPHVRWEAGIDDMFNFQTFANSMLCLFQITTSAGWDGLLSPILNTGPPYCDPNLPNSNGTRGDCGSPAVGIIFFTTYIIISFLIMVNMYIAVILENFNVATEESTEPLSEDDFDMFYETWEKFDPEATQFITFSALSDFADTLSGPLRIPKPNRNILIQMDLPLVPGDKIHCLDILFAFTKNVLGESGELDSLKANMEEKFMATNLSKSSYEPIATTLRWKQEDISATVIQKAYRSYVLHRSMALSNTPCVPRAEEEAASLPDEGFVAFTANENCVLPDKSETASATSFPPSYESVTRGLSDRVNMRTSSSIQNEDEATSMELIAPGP

IC50 [nM] | SMILES
101 | C[C@@H]1C(=O)NCCN1C(=O)NC(c1cnc(OC(F)F)s1)c1ccc(F)c(Cl)c1F (single isomer, unassigned) [Example 14B, (2R)-N-((S or R)-(3-chloro-2,4-difluorophenyl)(2-(difluoromethoxy)thiazol-5-yl)methyl)-2-methyl-3-oxopiperazine-1-carboxamide]
4.78 | C[C@@H]1C(=O)NCCN1C(=O)NC(c1cnc(OCC(F)(F)F)c(F)c1)c1ccc(F)c(C(F)(F)F)n1 (single isomer, unassigned) [Example 48A]
41.1 | C[C@@H]1C(=O)NCCN1C(=O)NC(c1ccc(C(F)(F)F)nc1)c1ccc(F)c(OC(F)(F)F)c1 (single isomer, unassigned) [Example 19A, (2R)-N-((R or S)-(4-fluoro-3-(trifluoro-methoxy)phenyl)(6-(trifluoromethyl)pyridin-3-yl)methyl)-2-methyl-3-oxopiperazine-1-carboxamide]
3760 | O=C1CN(C(=O)NC(c2ccc(F)c(Cl)c2)c2cccc(C(F)(F)F)n2)[C@H](CF)CN1 (single isomer, unassigned) [Example 47B, (2S)-N-((R or S)-(3-chloro-4-fluoro-phenyl)(6-(trifluoro-methyl)pyridin-2-yl)methyl)-2-(fluoromethyl)-5-oxopiperazine-1-carboxamide]
1.9 | O=C1CN(C(=O)NC(c2ccc(F)c(Cl)c2)c2ccc(Cl)c(C(F)(F)F)n2)CCN1 (single isomer, unassigned) [Example 80, N-((R or S)-(3-chloro-4-fluorophenyl)(5-chloro-6-(trifluoromethyl)pyridin-2-yl)methyl)-3-oxopiperazine-1-carboxamide]
2.95 | C[C@@H]1C(=O)NCCN1C(=O)NC(c1ccc(C(C)(F)F)nc1)c1ccc(F)c(Cl)c1F (single isomer, unassigned) [Example 75B]
17.4 | C[C@@H]1C(=O)NCCN1C(=O)NC(c1cnc(C(F)(F)F)c(Cl)c1)c1ccc(F)c(C(F)(F)F)n1 (single isomer, unassigned) [Example 82A]
258 | C[C@@H]1C(=O)NCCN1C(=O)NC(c1ccc(F)c(F)c1)c1ccc(F)c(C(F)(F)F)n1 (single isomer, unassigned) [Example 49A, (2R)-N-((R or S)-(3,4-difluorophenyl)(5-fluoro-6-(trifluoro-methyl)pyridin-2-yl)methyl)-2-methyl-3-oxopiperazine-1-carboxamide]
8.03 | C[C@@H]1C(=O)NCCN1C(=O)NC(c1ccc(Cl)cc1)c1cccc(C(F)(F)F)n1 (single isomer, unassigned) [Example 9B, (2R)-N-((S or R)-(4-chlorophenyl)(6-(trifluoromethyl)pyridin-2-yl)methyl)-2-methyl-3-oxopiperazine-1-carboxamide]
154 | C[C@@H]1C(=O)NCCN1C(=O)NC(c1ccc(F)c(Cl)c1)c1cc(C(F)(F)F)nn1C (single isomer, unassigned) [Example 86B, (2R)-N-((S or R)-(3-chloro-4-fluoro-phenyl)(1-methyl-3-(trifluoro-methyl)-1H-pyrazol-5-yl)methyl)-2-methyl-3-oxo-piperazine-1-carboxamide]
28.9 | C[C@@H]1C(=O)NCCN1C(=O)NC(c1ccc(Cl)cc1)c1ccc(OCC(F)(F)F)nc1 (single isomer, unassigned) [Example 5B, (2R)-N-((S or R)-(4-chlorophenyl)(6-(2,2,2-trifluoro-ethoxy)pyridin-3-yl)methyl)-2-methyl-3-oxopiperazine-1-carboxamide]
124 | C[C@@H]1C(=O)NCCN1C(=O)NC(c1ccc(OC(F)(F)F)cc1)c1cc(C(F)(F)F)n[nH]1 (single isomer, unassigned) [Example 87A, (2R)-2-methyl-3-oxo-N-((R or S)-(4-(trifluoromethoxy)phenyl)(3-(trifluoromethyl)-1H-pyrazol-5-yl)methyl)piperazine-1-carboxamide]
2.13 | C[C@@H]1C(=O)NCCN1C(=O)NC(c1cnc(OCC(F)(F)F)s1)c1ccc(F)c(Cl)c1F (single isomer, unassigned) [Example 13A, (2R)-N-((R or S)-(3-chloro-2,4-difluoro-phenyl)(2-(2,2,2-tri-fluoroethoxy)thiazol-5-yl)methyl)-2-methyl-3-oxopiperazine-1-carboxamide]
125 | C[C@@H]1C(=O)NCCN1C(=O)NC(c1ccc(OCC(F)(F)F)cc1)c1ccc(F)c(C(F)(F)F)n1 (single isomer, unassigned) [Example 57B, (2R)-N-((S or R)-(5-fluoro-6-(trifluoro-methyl)pyridin-2-yl)(4-(2,2,2-trifluoro-ethoxy)phenyl)methyl)-2-methyl-3-oxopiperazine-1-carboxamide]
3.42 | C[C@@H]1C(=O)NCCN1C(=O)NC(c1ccc(C(F)(F)F)nc1)c1ccc(Cl)c(Cl)c1F (single isomer, unassigned) [Example 29B]
2630 | CC(C)C1C(=O)NCCN1C(=O)NC(c1ccc(C(F)(F)F)nc1)c1ccc(F)c(Cl)c1F (single isomer, unassigned) [Example 39A, N-((R or S)-(3-chloro-2,4-difluorophenyl)(6-(trifluoromethyl)pyridin-3-yl)methyl)-(R or S)-2-isopropyl-3-oxo-piperazine-1-carboxamide]
514 | C[C@@H]1C(=O)NCCN1C(=O)NC(c1ccc(C2CC2)nc1)c1ccc(F)c(Cl)c1F (single isomer, unassigned) [Example 33B, (2R)-N-((S or R)-(3-chloro-2,4-difluoro-phenyl)(6-cyclo-propylpyridin-3-yl)methyl)-2-methyl-3-oxopiperazine-1-carboxamide]
6.06 | C[C@@H]1C(=O)NCCN1C(=O)NC(c1cnc(C(F)(F)F)c(Cl)c1)c1ccc(Cl)c(C#N)c1 (single isomer, unassigned) [Example 23B, (2R)-N-((S or R)-(4-chloro-3-cyano-phenyl)(5-chloro-6-(trifluoromethyl)pyridin-3-yl)methyl)-2-methyl-3-oxopiperazine-1-carboxamide]
15.3 | O=C1CN(C(=O)NC(c2ccc(Cl)c(C(F)(F)F)n2)c2ccc(F)c(Cl)c2F)CCN1 (single isomer, unassigned) [Example 78A, N-((R or S)-(3-chloro-2,4-difluorophenyl)(5-chloro-6-(trifluoro-methyl)pyridin-2-yl)methyl)-3-oxopiperazine-1-carboxamide]
68.9 | C[C@@H]1C(=O)NCCN1C(=O)NC(c1ccc(Cl)c(F)c1)c1ccc(F)c(C(F)(F)F)n1 (single isomer, unassigned) [Example 53A, (2R)-N-((R or S)-(4-chloro-3-fluoro-phenyl)(5-fluoro-6-(trifluoromethyl)pyridin-2-yl)methyl)-2-methyl-3-oxopiperazine-1-carboxamide]
5.57 | C[C@@H]1C(=O)NCCN1C(=O)NC(c1cnc(OC(F)F)s1)c1ccc(F)c(Cl)c1F (single isomer, unassigned) [Example 14A, (2R)-N-((R or S)-(3-chloro-2,4-difluorophenyl)(2-(difluoromethoxy)thiazol-5-yl)methyl)-2-methyl-3-oxopiperazine-1-carboxamide]
1.89 | C[C@@H]1C(=O)NCCN1C(=O)NC(c1ccc(F)c(Cl)c1)c1cnc(C(F)(F)F)c(Cl)c1 (single isomer, unassigned) [Example 26A, (2R)-N-((R or S)-(3-chloro-4-fluoro-phenyl)(5-chloro-6-(trifluoromethyl)pyridin-3-yl)methyl)-2-methyl-3-oxopiperazine-1-carboxamide]
506 | C[C@@H]1C(=O)NCCN1C(=O)NC(c1cnc(C(F)(F)F)nc1)c1ccc(F)c(Cl)c1F (single isomer, unassigned) [Example 30A, (2R)-N-((R or S)-(3-chloro-2,4-difluoro-phenyl)(2-(trifluoro-methyl)pyrimidin-5-yl)methyl)-2-methyl-3-oxopiperazine-1-carboxamide]
1.31 | C[C@@H]1C(=O)NCCN1C(=O)NC(c1ccc(OC(F)(F)F)c(F)c1)c1ccc(F)c(C(F)(F)F)n1 (single isomer, unassigned) [Example 56B, (2R)-N-((S or R)-(3-fluoro-4-(trifluoro-methoxy)phenyl)(5-fluoro-6-(trifluoro-methyl)pyridin-2-yl)methyl)-2-methyl-3-oxopiperazine-1-carboxamide]
